Data on 105 compounds can be found in PubChem BioAssay AID1996.

For orientation: solubility (kinetic) means the concentration staying in solution when a stock, usually in DMSO, is diluted into the medium.

Converted amounts (≈) assume the structure as drawn.

The conditions of this data set: buffer; pH 7.4; 200.0 µM.
Compound `Cl.N#C/C(=C/c1cc(Cl)c(O)c(Cl)c1)C(=O)N1CCCCC1` had a kinetic solubility of more than 54.2 µg/mL.
With `CCOc1ccc(C(=S)N2CCCC2)c(OCC)c1`, the kinetic solubility is more than 41.9 µg/mL.
`Cc1ccccc1NC(=O)NC1(C(=O)N2CCC(O)CC2)CCCCC1` yielded a kinetic solubility of 44.1 µg/mL (≈ 123 µM).
For the compound `CC(=O)N1C[C@H](O)C[C@H]1C(=O)O`, the kinetic solubility was more than 26 µg/mL.
Under `Cc1ccc(CNC(=O)C2CSC3(C)CCC(=O)N23)cc1` (stereo not given) stands more than 45.7 µg/mL; under `O=C(NCCc1ccccc1)C1CCC(=O)N1C1CCCC1` (stereo not given), more than 45.1 µg/mL.
Under `O=C(CNC(=O)c1ccccc1F)OCC(=O)c1c[nH]c2ccccc12` stands 43 µg/mL (≈ 121 µM); under `COc1ccccc1CNCCc1ccc(F)cc1.O=C(O)C(=O)O`, more than 52.4 µg/mL; under `Cc1cccc(OCCN2C(=O)c3ccccc3C2=O)c1`, 4.6 µg/mL (≈ 16.4 µM).
Regarding `COc1ccc(CNC(=O)CCn2c(=O)[nH]c3ccccc3c2=O)cc1`, the kinetic solubility was 2.9 µg/mL (≈ 8.21 µM).
`O=C(CC12CC3CC(CC(C3)C1)C2)NC1CC1` displayed a solubility (kinetic) of 30 µg/mL (≈ 129 µM).
For `O=C(CN1C(=O)c2cccc([N+](=O)[O-])c2C1=O)NCc1ccccc1`, the solubility (kinetic) is more than 50.9 µg/mL.
Then `COc1ccc(N2C(=O)CSC2c2ccc(F)cc2)cc1` (stereo not given), with more than 45.5 µg/mL; and `CS(=O)(=O)Nc1ccc(-c2cn3c(n2)SCC3)cc1`, with 43.6 µg/mL (≈ 148 µM).
Turning to `O=C(CCCSc1ccccc1)Nc1cccc(CO)c1`, the solubility (kinetic) is more than 45.2 µg/mL.
Turning to `O=C(NCCNC(=O)c1ccccc1O)c1ccccc1O`, the solubility (kinetic) stood at 32.3 µg/mL (≈ 108 µM).
In the case of `Cc1cn2c(nc1=O)OC1CC2OC1CO` (stereo not given), the kinetic solubility was more than 33.6 µg/mL.
The compound `C=CCn1c(O)c(/C=C2/C=c3ccccc3=N2)c(=O)[nH]c1=S` showed a kinetic solubility of 1.2 µg/mL (≈ 3.85 µM).
Turning to `O=C(Oc1c(-c2ccccc2)c(=O)n2c3c(cccc13)CC2)c1cccc([N+](=O)[O-])c1`, the kinetic solubility came out at 5.2 µg/mL (≈ 12.6 µM). This solubility kinetic is about 4.3-fold higher than that of the compound before.
`COc1ccc(CCNC(=O)CSc2ccccn2)cc1OC` registered a solubility (kinetic) of more than 49.9 µg/mL.
Compound `Cc1ccc(NC(=S)NCC2CCN(C(C)c3ccccc3)C2)cc1` (stereo not given) registered a solubility (kinetic) of more than 53 µg/mL.
In turn, `COC(=O)[C@H](Cc1ccccc1)NC(=O)N(C)Cc1ccccc1` showed a solubility (kinetic) of more than 49 µg/mL.
Then `Cc1cc(NC(=O)CSc2nc3c(C)cccc3cc2C)no1`, with less than 0.2 µg/mL; and `N/C(Cc1nc(-c2ccc(F)cc2)cs1)=N\O`, with 36.4 µg/mL (≈ 145 µM); and `NC(=O)c1ccccc1NC(=O)CCn1c(=S)oc2ccccc21`, with 43.2 µg/mL (≈ 127 µM).
For `O=C(c1ccc2ncsc2c1)N1CCCC(C(F)(F)F)C1` (stereo not given), the kinetic solubility is more than 47.1 µg/mL.
Under `O=C(Nc1cc(Cl)cc(Cl)c1)Nc1cnccn1` stands 0.2 µg/mL (≈ 0.706 µM); under `COc1ccc(OC)c(NC(=O)CCCSc2ccccc2)c1`, 13.7 µg/mL (≈ 41.3 µM); under `COc1cc(OC)c(OC)cc1CNCCNC(=O)c1ccco1`, 44.5 µg/mL (≈ 133 µM).
As for `CC1(C)Oc2ccc3ccc(=O)oc3c2/C(=N/O)C1=O`, the kinetic solubility was more than 41 µg/mL.
`Cc1ccc(S(=O)(=O)N(CC2CO2)c2cccc([N+](=O)[O-])c2)cc1` (stereo not given) registered a solubility (kinetic) of 43.9 µg/mL (≈ 126 µM).
Then `CSc1ncccc1C(=O)Nc1ccc(C)cn1`, with more than 38.9 µg/mL.
As to `CCS(=O)(=O)Nc1cc2c3c(c1)CCN3C(=O)CC2`, the kinetic solubility was more than 42.1 µg/mL.
Compound `NC(=S)c1ncc(C(F)(F)F)cc1Cl` gave a solubility (kinetic) of 30.4 µg/mL (≈ 126 µM).
As for `O=S(=O)(c1cccc2nonc12)N1CCCCCC1`, the solubility (kinetic) was found to be 15.7 µg/mL (≈ 55.8 µM). This solubility kinetic is about 1.9-fold lower than that of the compound before.
`Cc1ccc(/C=C/C(=O)O)cc1S(=O)(=O)N1CCCCC1` came in with a kinetic solubility of more than 46.4 µg/mL.
In turn, `COC(=O)/C=C1\N/C(=N/c2nc(C)c3cc(OC)ccc3n2)NC1=O` had a kinetic solubility of 1.4 µg/mL (≈ 4.1 µM).
On to `O=C(NCc1ccccn1)Nc1ccc(Br)cc1`, for which the kinetic solubility was determined as 14.9 µg/mL (≈ 48.7 µM). This solubility kinetic is about 11-fold higher than that of the compound before.
The compound `FC(F)(F)c1ccccc1CNCc1ccc2c(c1)OCO2` had a kinetic solubility of 25.8 µg/mL (≈ 83.4 µM).
`Cc1cc(C)c2nc(Cl)c(Cl)nc2c1`: the kinetic solubility was 2.7 µg/mL (≈ 11.9 µM).
`COc1ccc(NC(=S)Nc2cccnc2)c(OC)c1` showed a kinetic solubility of 42.5 µg/mL (≈ 147 µM).
Compound `O=c1[nH]cnc(O)c1C(c1cccc([N+](=O)[O-])c1)c1c(O)nc[nH]c1=O` gave a kinetic solubility of more than 53.6 µg/mL.
Under `CCCCN(C(C)=O)C1CC(=O)N(c2ccc(OCCC)cc2)C1=O` (stereo not given) stands more than 52 µg/mL.
In the case of `Cc1ccc(OCCNC(=O)c2ccc3ccccc3n2)cc1`, the solubility (kinetic) stood at 5.4 µg/mL (≈ 17.6 µM).
With `COc1ccc(NC(=S)Nc2cccc(C(F)(F)F)c2)c(C)c1`, the solubility (kinetic) is 8 µg/mL (≈ 23.5 µM). The solubility kinetic values of the last two compounds are within 1.5-fold of each other.
On to `CC1(C)CC(=O)c2c(Cc3ccccc3)noc2C1`, for which the kinetic solubility amounted to 33.4 µg/mL (≈ 131 µM).
Turning to `O=C(O)CCn1c(-c2ccccn2)nc2ccccc21`, the solubility (kinetic) was more than 40.1 µg/mL.
In turn, `O=C(CCc1ccccc1)NCC1(c2ccccc2)CCCC1` displayed a solubility (kinetic) of 23.8 µg/mL (≈ 77.4 µM).
Take `COC(=O)[C@H](Cc1ccccc1)NC(=O)NCCc1ccccc1F`: the kinetic solubility is more than 51.7 µg/mL.
Take `O=C(c1cccs1)N1CCN=C1SCc1ccc(F)cc1`: the kinetic solubility is less than 0.3 µg/mL.
Compound `Cc1ccc(C)c(OCc2cc(C(=O)N3CCOCC3)no2)c1` came in with a kinetic solubility of 42.1 µg/mL (≈ 133 µM).
`OCCN1CCN(c2cc(C(F)(F)F)nc3c(F)cccc23)CC1` came in with a solubility (kinetic) of 48.5 µg/mL (≈ 141 µM).
For the compound `CCn1c(CNC(=O)c2cccnc2)cc2ccccc21`, the solubility (kinetic) is more than 41.9 µg/mL.
Turning to `Cn1c(-c2cccs2)nc2ccccc21`, the kinetic solubility was found to be 30.4 µg/mL (≈ 142 µM).
In turn, `Cc1cccc(NC(=S)N2CCCCCC2)c1C` had a kinetic solubility of more than 39.4 µg/mL.
Then `Fc1ccccc1-c1nc(-c2ccc(Br)o2)no1`, with less than 0.3 µg/mL; and `CCCc1cc(C(=O)N2CCCN(C)CC2)cs1`, with more than 40 µg/mL.
Under `CN1CCCN(c2ccc([N+](=O)[O-])cc2)CC1` stands more than 35.3 µg/mL; under `O=C1C(Cc2ccccc2O)NC(=S)N1c1ccccc1` (stereo not given), 44.6 µg/mL (≈ 149 µM); under `O=c1c2cccnc2nc2n1CCCCC2`, more than 32.3 µg/mL.
In turn, `O=[N+]([O-])c1ccccc1Nc1nc(-c2cccnc2)cs1` displayed a solubility (kinetic) of 1.7 µg/mL (≈ 5.7 µM).
The compound `CCOC(=O)C1CCN(C(=O)/C=C/c2ccc(S(=O)(=O)N3CCOCC3)cc2)CC1` gave a solubility (kinetic) of more than 65.5 µg/mL.
In turn, `O=C1COc2ccc(S(=O)(=O)N3CCCC3)cc2N1` had a kinetic solubility of more than 42.3 µg/mL.
Take `CC1CC1C(=O)OCC(=O)Nc1ccc(S(=O)(=O)N2CCOCC2)cc1` (stereo not given): the kinetic solubility is more than 57.4 µg/mL.
For the compound `Cn1cccc1/C=N/NC(=O)CSc1nc2ccccc2[nH]1`, the solubility (kinetic) was more than 47 µg/mL.
For the compound `Cc1oc(C(N)=O)nc1-c1ccccc1`, the kinetic solubility is more than 30.3 µg/mL.
As for `COc1ccccc1OCCN(C#N)c1nc(N(C)C)nc(N(C)C)n1`, the kinetic solubility is 6.3 µg/mL (≈ 17.6 µM).
For `Cc1cccc(C(=O)N/N=C/c2ccoc2)c1`, the kinetic solubility is more than 34.2 µg/mL.
`Cc1sc2ncnc(N3CCN(S(=O)(=O)c4ccc(C(C)(C)C)cc4)CC3)c2c1C` gave a kinetic solubility of 2.8 µg/mL (≈ 6.3 µM).
Under `Cc1cccc(-c2noc(CN(C)C(=O)c3ccco3)n2)c1` stands more than 44.6 µg/mL; under `CNC(=S)SCCOc1ccccc1`, 17.5 µg/mL (≈ 77 µM).
Then `Cc1cccc(C)c1NC(=O)NC1CCc2ccccc21` (stereo not given), with 1 µg/mL (≈ 3.57 µM).
In the case of `Cc1cccc(Nc2c([N+](=O)[O-])c(=O)oc3ccccc23)c1`, the solubility (kinetic) was less than 0.3 µg/mL.
As for `O=C1N=c2ccccc2=C1c1sc(=O)[nH]c1O`, the kinetic solubility was more than 36.9 µg/mL.
For the compound `O=C(NCCc1ccc(Cl)cc1Cl)c1cccnc1`, the kinetic solubility was more than 44.3 µg/mL.
In turn, `CCOc1cc(C)c(S(=O)(=O)N2CCCCC2)cc1C` had a solubility (kinetic) of 14.5 µg/mL (≈ 48.8 µM).
Then `CCc1nc2ccc(C(=O)N(C)CC(=O)Nc3ccccc3C(F)(F)F)cc2nc1CC`, with 27.6 µg/mL (≈ 62.1 µM).
`NS(=O)(=O)c1ccc(CNC(=O)c2cc(=O)c3ccccc3o2)cc1`: the kinetic solubility worked out at 1.7 µg/mL (≈ 4.74 µM).
The compound `CN(C(=O)c1ccco1)c1nc(-c2ccc(F)cc2)cs1` had a kinetic solubility of less than 0.3 µg/mL.
With `CCCCn1c(N)c(N(CC)C(=O)c2c(C)noc2C)c(=O)[nH]c1=O`, the solubility (kinetic) was more than 52.4 µg/mL.
The compound `CC(CC(=O)Nc1ccc2c(c1)OCO2)c1ccccc1` (stereo not given) yielded a kinetic solubility of 38.5 µg/mL (≈ 136 µM).
The compound `Cc1cn2c(=O)c(C(=O)N3CCN(c4ccccc4F)CC3)cnc2s1` gave a solubility (kinetic) of more than 55.9 µg/mL.
`O=S(=O)(c1ccccc1)N1CCNCC1` returned a solubility (kinetic) of 26.6 µg/mL (≈ 118 µM).
`O=[N+]([O-])/C=C1\CCCCCN1` registered a kinetic solubility of more than 23.4 µg/mL.
`COc1ccc(/C=C/C(=O)N2CCN(c3ccccn3)CC2)cc1` returned a kinetic solubility of 13.9 µg/mL (≈ 43 µM).
On to `COc1ccccc1OCCC(=O)OCC(=O)Nc1ccc2c(c1)OCCO2`, for which the kinetic solubility amounted to 55.8 µg/mL (≈ 144 µM).
In the case of `Nc1ccccc1C(=O)N1CCc2ccccc21`, the solubility (kinetic) is more than 35.7 µg/mL.
On to `Cc1ccc(CN2CCC(CO)(CC3CCCCO3)CC2)o1` (stereo not given), for which the kinetic solubility was more than 46.1 µg/mL.
Compound `Cc1cc(Nc2ccc(Cl)cc2)nc(N2CCOCC2)n1` gave a solubility (kinetic) of 1.8 µg/mL (≈ 5.91 µM).
`CC(CC(=O)O)CC(=O)Nc1ccc(Br)cc1` (stereo not given): the solubility (kinetic) was more than 45 µg/mL.
Compound `CNc1nc(=S)[nH]c2ccccc12` yielded a solubility (kinetic) of more than 28.7 µg/mL.
For the compound `O=C(c1ccc(S(=O)(=O)Nc2ccccc2Cl)cc1)N1CCCC1`, the kinetic solubility was more than 54.7 µg/mL.
Regarding `COc1ccc(C(C)=O)cc1CC(=O)NC1CCCCCC1`, the kinetic solubility was 39.2 µg/mL (≈ 129 µM).
`COc1ccc(CCC(C)NCCc2ccc(Cl)cc2Cl)cc1` (stereo not given) gave a kinetic solubility of 21.4 µg/mL (≈ 60.7 µM).
For `COc1ccc(C(=O)Nc2ccc(Nc3ccccc3)cc2)cc1OC`, the kinetic solubility was less than 0.4 µg/mL.
Turning to `O=C(COC(=O)Cc1ccsc1)Nc1ccc(Cl)cn1`, the kinetic solubility is more than 46.6 µg/mL.
Compound `CC(=O)Nc1ccc(S(=O)(=O)Nc2cccc3cccnc23)cc1` yielded a solubility (kinetic) of more than 51.2 µg/mL.
Regarding `O=C(O)c1ccccc1NC(=O)N1CCOCC1`, the kinetic solubility was more than 37.5 µg/mL.
Compound `CC1CCCC(NC(=O)c2ccc3c(c2)OCO3)C1C` (stereo not given) gave a kinetic solubility of more than 41.3 µg/mL.
The compound `COc1ccc(-n2c(C)nc3ccccc3c2=O)c([N+](=O)[O-])c1` returned a solubility (kinetic) of 39.4 µg/mL (≈ 127 µM).
Compound `COc1ccc(NC(=S)NCCc2ccccc2)c(C)c1` gave a solubility (kinetic) of 8.5 µg/mL (≈ 28.3 µM).
Compound `CC(=O)CCc1oc2c([N+](=O)[O-])cccc2c1-c1ccc(C)o1` gave a kinetic solubility of 2.8 µg/mL (≈ 8.94 µM).
Regarding `CC(=O)Nc1ccc(S(=O)(=O)N2CCN(c3ccc([N+](=O)[O-])cc3)CC2)cc1`, the solubility (kinetic) worked out at 0.4 µg/mL (≈ 0.989 µM).
`Nc1cc(Cl)ccc1C(=O)OCC(=O)N1CCCCCC1` yielded a solubility (kinetic) of 5.4 µg/mL (≈ 17.4 µM).
Compound `C/C(=C\C(=O)c1ccc(Cl)s1)N(C)C` registered a kinetic solubility of more than 34.5 µg/mL.
